Reference: article PMC8611036, “An integrated method for optimized identification of effective natural inhibitors against SARS-CoV-2 3CLpro” (Scientific Reports, 2021)
Non-standard residues stand in square brackets, D forms with d. Residues, ends and D or L forms follow the SMILES beside them. 2Thi = N[C@@H](Cc1cccs1)C(=O)O; Cha = N[C@@H](CC1CCCCC1)C(=O)O

Tested on: SARS-CoV 3CLpro
Type: biochemical
Conditions: activity class by pIC50 threshold 6

SMILES	Inact.(<6)/Act.(>=6)
Cn1cnc(C(=O)N(c2ccc(C(C)(C)C)cc2)C(C(=O)NC(C)(C)C)c2cccnc2)c1 (stereo not drawn) [CMP206]	Inact. (Inact.(<6))
CC1CC(C)CN(S(=O)(=O)c2ccc3c(c2)C(=O)C(=O)N3)C1 (stereo not drawn) [CMP255]	Inact. (Inact.(<6))
CC(C)(C)NC(=O)C(c1cccnc1)N(C(=O)c1ncco1)c1ccc(C(C)(C)C)cc1 (stereo not drawn) [CMP202]	Inact. (Inact.(<6))
CC(=O)n1nc(SSc2ccccc2[N+](=O)[O-])nc1-c1cccnc1 [CMP272]	Inact. (Inact.(<6))
CC1CCN(S(=O)(=O)c2ccc3c(c2)C(=O)C(=O)N3C)CC1 [CMP247]	Inact. (Inact.(<6))
O=C[C@H](Cc1cnc[nH]1)NC[C@@H]1C[C@H]2CCCC[C@@H]2CN1C(=O)c1ccc(Br)cc1 [CMP256]	Inact. (Inact.(<6))
Cc1ccc(C(=O)N/C(=C\c2ccc(-c3cccc([N+](=O)[O-])c3)o2)C(=O)NCCCN(C)C)cc1 [CMP283]	Inact. (Inact.(<6))
O=C(Cn1nnc2ccccc21)N(Cc1ccsc1)c1ccc(NCc2ccccc2)cc1 [CMP221]	Inact. (Inact.(<6))
CC(=O)N[C@@H](CO)C(=O)N[C@@H](C)C(=O)N[C@H](C(=O)N[C@@H](CC(C)C)C(=O)N[C@H](C=O)Cc1cccs1)C(C)C [CMP216] (Ac-SAVL[2Thi]-aldehyde)	Inact. (Inact.(<6))
O=C(Oc1cncc(Cl)c1)c1cccnc1 [CMP172]	Act. (Act.(>=6))
CC(=O)N[C@@H](CO)C(=O)N[C@@H](C)C(=O)N[C@H](C(=O)N[C@@H](CC(C)C)C(=O)N[C@H](C=O)Cc1ccccc1)C(C)C [CMP215] (Ac-SAVLF-aldehyde)	Inact. (Inact.(<6))
CC(C)(C)NC(=O)C(c1cnccn1)N(C(=O)c1ccco1)c1ccc(C(C)(C)C)cc1 (stereo not drawn) [CMP204]	Inact. (Inact.(<6))
COc1cc(CN2CCN(S(=O)(=O)c3ccc4c(c3)C(=O)C(=O)N4)CC2)cc(OC)c1OC [CMP236]	Inact. (Inact.(<6))
CC1CC(C)CN(S(=O)(=O)c2ccc3c(c2)C(=O)C(=O)N3Cc2ccccc2)C1 (stereo not drawn) [CMP251]	Inact. (Inact.(<6))
Cc1cc(C(=O)N[C@@H](C)C(=O)N[C@H](C(=O)N[C@@H](CC(C)C)C(=O)N[C@H](C#N)CCC(N)=O)C(C)C)no1 [CMP228]	Inact. (Inact.(<6))
O=C(Oc1cncc(Cl)c1)c1ccc(-c2ccccc2[N+](=O)[O-])o1 [CMP281]	Act. (Act.(>=6))
CC(=O)N[C@@H](CO)C(=O)N[C@H](C(=O)N[C@@H](CC1CCCCC1)C(=O)N[C@H](C=O)Cc1c[nH]cn1)C(C)C [CMP218] (Ac-SV[Cha]H-aldehyde)	Act. (Act.(>=6))
CC(C)C[C@H](NC(=O)[C@@H](NC(=O)[C@H](C)NC(=O)OC(C)(C)C)C(C)C)C(=O)N[C@H](C#N)CCC(N)=O [CMP229]	Inact. (Inact.(<6))
CCN(CC)c1ccc(C(=O)On2nnc3ccccc32)cc1 [CMP164]	Inact. (Inact.(<6))
CN1CCN(S(=O)(=O)c2ccc3c(c2)C(=O)C(=O)N3Cc2ccc3ccccc3c2)CC1 [CMP243]	Inact. (Inact.(<6))
C=C(CCSc1ccccc1NC(=O)/C=C/c1ccccc1)OC [CMP107]	Inact. (Inact.(<6))
C=C(Cc1cccc(C)c1)C1=CC=C(c2ccc(C)cc2)C1 [CMP233]	Inact. (Inact.(<6))
O=C1Nc2ccc(S(=O)(=O)N3CCN(Cc4cccc(Cl)c4)CC3)cc2C1=O [CMP235]	Inact. (Inact.(<6))
Cc1cc(C)nc(SSc2ccccc2[N+](=O)[O-])n1 [CMP274]	Act. (Act.(>=6))
O=C(Oc1cncc(Cl)c1)c1ccccc1[N+](=O)[O-] [CMP279]	Act. (Act.(>=6))
CC(=O)Oc1cc2c(cc1C(C)C)CC[C@H]1[C@](C)(CO)CCC[C@]21C [CMP207]	Inact. (Inact.(<6))

SMILES	Inact.(<6)/Act.(>=6)
O=C(Oc1cncc(Cl)c1)c1ccncc1 [CMP167]	Act. (Act.(>=6))
O=C[C@H](Cc1c[nH]cn1)NC[C@@H]1C[C@H]2CCCC[C@@H]2CN1C(=O)c1ccccc1-c1ccccc1 [CMP261]	Inact. (Inact.(<6))
CN1CCN(S(=O)(=O)c2ccc3c(c2)C(=O)C(=O)N3C)CC1 [CMP241]	Inact. (Inact.(<6))
CC(=O)N[C@@H](C)C(=O)N[C@H](C(=O)N[C@@H](CC1CCCCC1)C(=O)N[C@H](C=O)Cc1c[nH]cn1)C(C)C [CMP219] (Ac-AV[Cha]H-aldehyde)	Act. (Act.(>=6))
CCC(=O)Nc1ccc(N(Cc2ccsc2)C(=O)Cn2nnc3ccccc32)cc1 [CMP220]	Inact. (Inact.(<6))
CC(=O)N[C@@H](CC(N)=O)C(=O)N[C@H](C(=O)N[C@@H](CC1CCCCC1)C(=O)N[C@H](C=O)Cc1c[nH]cn1)C(C)C [CMP217] (Ac-NV[Cha]H-aldehyde)	Inact. (Inact.(<6))
O=C(Sc1nnc(C(F)(F)F)[nH]1)c1ccc(C#Cc2ccccc2)o1 [CMP143]	Inact. (Inact.(<6))
O=C(Oc1cncc(Cl)c1)c1ccc(-c2cccc([N+](=O)[O-])c2)o1 [CMP278]	Act. (Act.(>=6))
CN1CCN(S(=O)(=O)c2ccc3c(c2)C(=O)C(=O)N3Cc2ccccc2)CC1 [CMP242]	Inact. (Inact.(<6))
O=[N+]([O-])c1ccccc1SSc1nccs1 [CMP266]	Inact. (Inact.(<6))
Cc1coc2c1C(=O)C(=O)c1c-2ccc2c(C)cccc12 [CMP127]	Inact. (Inact.(<6))
CC(C)c1cc2c(cc1O)[C@@]1(C)CC[C@H](O)C(C)(C)[C@@H]1CC2 [CMP163]	Inact. (Inact.(<6))
O=C1C(=O)N(Cc2ccc3ccccc3c2)c2ccc(S(=O)(=O)N3CCOCC3)cc21 [CMP246]	Inact. (Inact.(<6))
O=C1NN(c2ccc(Cl)c(Cl)c2)C(=O)/C1=C\c1ccc(-c2ccc(Br)cc2C(=O)O)o1 [CMP104]	Inact. (Inact.(<6))
COc1ccc2c(c1)CCC1C2=NN(C(C)=O)C1c1cccc(I)c1 (stereo not drawn) [CMP116]	Inact. (Inact.(<6))
O=C1Nc2ccc(S(=O)(=O)N3CCN(C(=O)c4ccco4)CC3)cc2C1=O [CMP238]	Inact. (Inact.(<6))
CC(C)(C)NC(=O)C(c1cccnc1)N(C(=O)C1=NC=NC1)c1ccc(C(C)(C)C)cc1 (stereo not drawn) [CMP234]	Inact. (Inact.(<6))
CC(C)(C)NC(=O)C(c1cccnc1)N(C(=O)c1ccc(Cl)o1)c1ccc(C(C)(C)C)cc1 (stereo not drawn) [CMP201]	Inact. (Inact.(<6))
CN1CCN(S(=O)(=O)c2ccc3c(c2)C(=O)C(=O)N3)CC1 [CMP227]	Inact. (Inact.(<6))
CC1CCCCN1S(=O)(=O)c1ccc2c(c1)C(=O)C(=O)N2 (stereo not drawn) [CMP240]	Inact. (Inact.(<6))
COc1ncccc1-c1ccc(N(Cc2ccsc2)C(=O)Cn2nnc3ccccc32)cc1 [CMP225]	Act. (Act.(>=6))
CCOC(=O)c1ccccc1SSc1nc(C(=O)OC)c(C)[nH]1 [CMP264]	Inact. (Inact.(<6))
CC(=O)Nc1cnc(SSc2ccc(Br)cc2)s1 [CMP23, reference compound]	Inact. (Inact.(<6))
CC(C)(C)NC(=O)C(c1ccncc1)N(C(=O)c1ccco1)c1ccc(C(C)(C)C)cc1 (stereo not drawn) [CMP205]	Inact. (Inact.(<6))
O=C1Nc2ccc(S(=O)(=O)N3CCN(c4ccccn4)CC3)cc2C1=O [CMP239]	Inact. (Inact.(<6))
